Measured values published in patent publication US11629171B2, “Beta-hairpin peptidomimetics” (POLYPHOR AG, priority 2017, dated 2023).
In brackets after ≈: the same amount, converted by molar mass. Where a SMILES comes first, the peptide text is derived from it. Bridges are numbered along the chain shown (N, C = ends). Roman numbers before positions name the chains, in order. [ ]: non-standard residue; d: D form. aThr = C[C@H](O)[C@H](N)C(=O)O; Tle = CC(C)(C)[C@H](N)C(=O)O; dDab = NCC[C@@H](N)C(=O)O; Nle = CCCC[C@H](N)C(=O)O; Dab = NCC[C@H](N)C(=O)O; Nva = CCC[C@H](N)C(=O)O; Abu = CC[C@H](N)C(=O)O; Dap = NC[C@H](N)C(=O)O

Key:
Format in all cases: cell-based
[1] = test system: Acinetobacter baumannii 872842; settings: 872842
How it was run: (§1)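 MIC in μg/mL, read as no visible growth after 18-20 hours at 35° C. Peptides were serially diluted two-fold in MH-II broth plus P-80 (0.002% final, v/v) and inoculated at about 10^6 CFU/mL following the CLSI broth microdilution standard.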

[2] = test system: Acinetobacter baumannii DSM 30008; settings: DSM 30008
How it was run: as §1

[3] = test system: Enterobacter cloacae 848840; settings: 848840
How it was run: as §1

Escherichia coli 926415 = settings: 926415
How it was run: as §1

[4] = test system: Escherichia coli ATCC 25922; settings: ATCC 25922
How it was run: as §1

[5] = test system: Klebsiella pneumoniae 968733; settings: 968733
How it was run: as §1

[6] = test system: Klebsiella pneumoniae SSI #3010; settings: SSI #3010
How it was run: as §1

[7] = test system: Pseudomonas aeruginosa ATCC 27853; settings: ATCC 27853
How it was run: as §1

[8] = test system: human red blood cells (hRBC); assay: Hemolysis; settings: red cells of human, 1 h, 200
How it was run: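 Hemoglobin release from PBS-washed hRBC at 20% (v/v), incubated 1 h at 37° C with peptides at 200 μg/mL, is measured at 540 nm. Values are blank corrected and given as a fraction of Triton X-100 lysis × 100%.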

Row | SMILES | MIC [1] [µg/mL] | MIC [2] [µg/mL] | MIC [3] [µg/mL] | MIC (Escherichia coli 926415) [µg/mL] | MIC [4] [µg/mL] | MIC [5] [µg/mL] | MIC [6] [µg/mL] | MIC [7] [µg/mL] | Hemolysis at 200 μg/mL [8] [%]
1 | CC(=O)N[C@H](C(=O)N[C@H]1CSSC[C@@H](C(=O)N[C@H](C(N)=O)[C@@H](C)O)NC(=O)[C@H](C(C)(C)C)NC(=O)[C@H](CCC(=O)O)NC(=O)[C@H](Cc2c[nH]c3ccccc23)NC(=O)[C@H](CO)NC(=O)[C@@H](CCN)NC(=O)[C@H](CCC(=O)N[C@@H](CCN)C(=O)N[C@H](C(=O)N[C@@H](CN)C(=O)N[C@H]2CCNC(=O)[C@H]([C@@H](C)O)NC(=O)[C@H](CCN)NC(=O)[C@H](CCN)NC(=O)[C@H](CC(C)C)NC(=O)[C@@H](CC(C)C)NC(=O)[C@H](CCN)NC2=O)[C@@H](C)O)NC(=O)[C@H](CCN)NC(=O)[C@H](Cc2ccc(O)cc2)NC1=O)C(C)C [Ex. 135] (I: Ac-VCY[Dab]E[dDab]SWE[Tle]CT-NH2 / II: [Dab]T[Dap][Dab][Dab][dL]L[Dab][Dab]T; disulfide I:2-I:11; amide I:5-II:N; lactam II:4-II:C) | 0.03125 (≈ 0.0127 µM) | 0.03125 (≈ 0.0127 µM) | 0.0625 (≈ 0.0253 µM) | 0.0625 (≈ 0.0253 µM) | 0.03125 (≈ 0.0127 µM) | 0.125 (≈ 0.0506 µM) | 0.0625 (≈ 0.0253 µM) | 0.125 (≈ 0.0506 µM) | <1
2 | CC[C@@H]1NC(=O)[C@@H](CC(C)C)NC(=O)[C@H](CCN)NC(=O)[C@@H](NC(=O)[C@H](CN)NC(=O)[C@@H](NC(=O)[C@H](CCN)NC(=O)CC[C@@H]2NC(=O)[C@H](CCN)NC(=O)[C@H](Cc3ccc(O)cc3)NC(=O)[C@@H](NC(=O)[C@@H](NC(C)=O)C(C)C)CSSC[C@@H](C(=O)N[C@@H](CO)C(N)=O)NC(=O)[C@H](C(C)(C)C)NC(=O)[C@H](CO)NC(=O)[C@H](Cc3c[nH]c4ccccc34)NC(=O)[C@H](CO)NC(=O)[C@@H](CCN)NC2=O)[C@@H](C)O)CCNC(=O)[C@H]([C@@H](C)O)NC(=O)[C@H](CCN)NC(=O)[C@H](CCN)NC1=O [Ex. 136] (I: Ac-VCY[Dab]E[dDab]SWS[Tle]CS-NH2 / II: [Dab]T[Dap][Dab][Dab][dL][Abu][Dab][Dab]T; disulfide I:2-I:11; amide I:5-II:N; lactam II:4-II:C) | 0.03125 (≈ 0.0131 µM) | 0.03125 (≈ 0.0131 µM) | 0.0625 (≈ 0.0262 µM) | 0.0625 (≈ 0.0262 µM) | 0.03125 (≈ 0.0131 µM) | 0.0625 (≈ 0.0262 µM) | 0.0625 (≈ 0.0262 µM) | 0.25 (≈ 0.105 µM) | 3
3 | CC(=O)N[C@H](C(=O)N[C@H]1CSSC[C@@H](C(=O)N[C@H](C(N)=O)[C@@H](C)O)NC(=O)[C@H](C(C)(C)C)NC(=O)[C@H](CO)NC(=O)[C@H](Cc2c[nH]c3ccccc23)NC(=O)[C@H](CO)NC(=O)[C@@H](CCN)NC(=O)[C@H](CCC(=O)N[C@@H](CCN)C(=O)N[C@H](C(=O)N[C@@H](CN)C(=O)N[C@H]2CCNC(=O)[C@H]([C@@H](C)O)NC(=O)[C@H](CCN)NC(=O)[C@H](CCN)NC(=O)[C@H]([C@@H](C)O)NC(=O)[C@@H](CC(C)C)NC(=O)[C@H](CCN)NC2=O)[C@@H](C)O)NC(=O)[C@H](CCN)NC(=O)[C@H](Cc2ccc(O)cc2)NC1=O)C(C)C [Ex. 139] (I: Ac-VCY[Dab]E[dDab]SWS[Tle]CT-NH2 / II: [Dab]T[Dap][Dab][Dab][dL]T[Dab][Dab]T; disulfide I:2-I:11; amide I:5-II:N; lactam II:4-II:C) | 0.0625 (≈ 0.0259 µM) | 0.0625 (≈ 0.0259 µM) | 0.125 (≈ 0.0518 µM) | 0.125 (≈ 0.0518 µM) | 0.0625 (≈ 0.0259 µM) | 0.25 (≈ 0.104 µM) | 0.0625 (≈ 0.0259 µM) | 0.25 (≈ 0.104 µM) | 2
4 | CC(=O)N[C@H](C(=O)N[C@H]1CSSC[C@@H](C(=O)N[C@H](C(N)=O)[C@@H](C)O)NC(=O)[C@H](C(C)(C)C)NC(=O)[C@H](CO)NC(=O)[C@H](Cc2c[nH]c3ccccc23)NC(=O)[C@H](CO)NC(=O)[C@@H](CCN)NC(=O)[C@H](CCC(=O)N[C@@H](CCN)C(=O)N[C@H](C(=O)N[C@@H](CN)C(=O)N[C@H]2CCNC(=O)[C@H]([C@@H](C)O)NC(=O)[C@H](CCN)NC(=O)[C@H](CCN)NC(=O)[C@H]([C@H](C)O)NC(=O)[C@@H](CC(C)C)NC(=O)[C@H](CCN)NC2=O)[C@@H](C)O)NC(=O)[C@H](CCN)NC(=O)[C@H](Cc2ccc(O)cc2)NC1=O)C(C)C [Ex. 140] (I: Ac-VCY[Dab]E[dDab]SWS[Tle]CT-NH2 / II: [Dab]T[Dap][Dab][Dab][dL][aThr][Dab][Dab]T; disulfide I:2-I:11; amide I:5-II:N; lactam II:4-II:C) | 0.5 (≈ 0.207 µM) | 0.125 (≈ 0.0518 µM) | 0.25 (≈ 0.104 µM) | 0.25 (≈ 0.104 µM) | 0.125 (≈ 0.0518 µM) | 0.5 (≈ 0.207 µM) | 0.125 (≈ 0.0518 µM) | 0.25 (≈ 0.104 µM) | <1
5 | CCC[C@@H]1NC(=O)[C@@H](CC(C)C)NC(=O)[C@H](CCN)NC(=O)[C@@H](NC(=O)[C@H](CN)NC(=O)[C@@H](NC(=O)[C@H](CCN)NC(=O)CC[C@@H]2NC(=O)[C@H](CCN)NC(=O)[C@H](Cc3ccc(O)cc3)NC(=O)[C@@H](NC(=O)[C@@H](NC(C)=O)C(C)C)CSSC[C@@H](C(=O)N[C@H](C(N)=O)[C@@H](C)O)NC(=O)[C@H](C(C)(C)C)NC(=O)[C@H](CO)NC(=O)[C@H](Cc3c[nH]c4ccccc34)NC(=O)[C@H](CO)NC(=O)[C@@H](CCN)NC2=O)[C@@H](C)O)CCNC(=O)[C@H]([C@@H](C)O)NC(=O)[C@H](CCN)NC(=O)[C@H](CCN)NC1=O [Ex. 141] (I: Ac-VCY[Dab]E[dDab]SWS[Tle]CT-NH2 / II: [Dab]T[Dap][Dab][Dab][dL][Nva][Dab][Dab]T; disulfide I:2-I:11; amide I:5-II:N; lactam II:4-II:C) | 0.0625 (≈ 0.0259 µM) | 0.03125 (≈ 0.013 µM) | 0.0625 (≈ 0.0259 µM) | 0.03125 (≈ 0.013 µM) | 0.03125 (≈ 0.013 µM) | 0.03125 (≈ 0.013 µM) | 0.03125 (≈ 0.013 µM) | 0.125 (≈ 0.0518 µM) | 2
6 | CCCC[C@H](NC(C)=O)C(=O)N[C@H]1CSSC[C@@H](C(=O)N[C@H](C(N)=O)[C@@H](C)O)NC(=O)[C@H](C(C)(C)C)NC(=O)[C@H](CO)NC(=O)[C@H](Cc2c[nH]c3ccccc23)NC(=O)[C@H](CO)NC(=O)[C@@H](CCN)NC(=O)[C@H](CCC(=O)N[C@@H](CCN)C(=O)N[C@H](C(=O)N[C@@H](CN)C(=O)N[C@H]2CCNC(=O)[C@H]([C@@H](C)O)NC(=O)[C@H](CCN)NC(=O)[C@H](CCN)NC(=O)[C@H](CC)NC(=O)[C@@H](CC(C)C)NC(=O)[C@H](CCN)NC2=O)[C@@H](C)O)NC(=O)[C@H](CCN)NC(=O)[C@H](Cc2ccc(O)cc2)NC1=O [Ex. 142] (I: Ac-[Nle]CY[Dab]E[dDab]SWS[Tle]CT-NH2 / II: [Dab]T[Dap][Dab][Dab][dL][Abu][Dab][Dab]T; disulfide I:2-I:11; amide I:5-II:N; lactam II:4-II:C) | 0.03125 (≈ 0.013 µM) | 0.03125 (≈ 0.013 µM) | 0.125 (≈ 0.0518 µM) | 0.03125 (≈ 0.013 µM) | 0.0625 (≈ 0.0259 µM) | 0.0625 (≈ 0.0259 µM) | 0.03125 (≈ 0.013 µM) | 0.125 (≈ 0.0518 µM) | <1
7 | CC[C@@H]1NC(=O)[C@@H](CC(C)C)NC(=O)[C@H](CCN)NC(=O)[C@@H](NC(=O)[C@H](CN)NC(=O)[C@@H](NC(=O)[C@H](CCN)NC(=O)CC[C@@H]2NC(=O)[C@H](CCN)NC(=O)[C@H](Cc3ccc(O)cc3)NC(=O)[C@@H](NC(=O)[C@@H](NC(C)=O)C(C)C)CSSC[C@@H](C(=O)N[C@H](C(N)=O)[C@@H](C)O)NC(=O)[C@H]([C@@H](C)CC)NC(=O)[C@H](CO)NC(=O)[C@H](Cc3c[nH]c4ccccc34)NC(=O)[C@H](CO)NC(=O)[C@@H](CCN)NC2=O)[C@@H](C)O)CCNC(=O)[C@H]([C@@H](C)O)NC(=O)[C@H](CCN)NC(=O)[C@H](CCN)NC1=O [Ex. 143] (I: Ac-VCY[Dab]E[dDab]SWSICT-NH2 / II: [Dab]T[Dap][Dab][Dab][dL][Abu][Dab][Dab]T; disulfide I:2-I:11; amide I:5-II:N; lactam II:4-II:C) | 0.03125 (≈ 0.013 µM) | 0.0625 (≈ 0.0261 µM) | 0.0625 (≈ 0.0261 µM) | 0.125 (≈ 0.0521 µM) | 0.03125 (≈ 0.013 µM) | 0.0625 (≈ 0.0261 µM) | 0.0625 (≈ 0.0261 µM) | 0.125 (≈ 0.0521 µM) | 2
